In patent publication US20240209004A1, “BORIC ACID DERIVATIVE ACTING AS Beta-LACTAMASE INHIBITOR” (TUOJIE BIOTECH (SHANGHAI) CO., LTD., priority 2021, published 2024):
Values after ≈ are worked out from the molar mass of the structure shown. Where two headings read alike, the source gives them in different places.

Legend:
Format in all cases: cell-based
[1] = test system: cefepime-resistant Klebsiella pneumoniae expressing different types of β-lactamases; test: microbe, parasite or virus in culture; conditions: for MIC: Klebsiella pneumoniae; for MIC, Cefepime + compound (8 ug/ml): inhibitor at 8 ug/ml
Procedure: (§1) The biosafety cabinet was sterilized with ultraviolet light for 30 min. Glycerol tubes were taken out of a −80° C. freezer, and streaks were gently formed in the glycerol tubes using inoculating loops. Bacteria were inoculated onto MHIIA solid plates. The plates were incubated overnight in a 37° C. incubator.
(§2) 30 μL of compound stock solution was added to column 1 of a 96-well v-bottom plate, and DMSO was added to columns 2-10. Subsequently, 15 μL was transferred from column 1 to column 2 using a pipette and well mixed gently, and then 15 μL of solution was transferred from column 2 to column 3: the serial dilution process proceeded to column 10 (200×β-lactamase inhibitor working solutions were prepared). The antibiotic was diluted with a corresponding solvent to form a 1.6 mg/mL solution.

[2] = test system: cefepime-resistant Acinetobacter baumannii; test: MIC in combination with cefepime for drug-resistant bacteria (Test Example 2); conditions: Acinetobacter baumannii, with CPM 8 μg/mL, read-out: concentration for achieving a bacteriostatic effect where the CPM MIC is fixed at 8 μg/mL
Procedure: as §1
as §2, with “3;” for “3:”

[3] = test system: cefepime-resistant Escherichia coli; test: as above; conditions: for MIC: Escherichia coli, with CPM 8 μg/mL, read-out: concentration for achieving a bacteriostatic effect where the CPM MIC is fixed at 8 μg/mL
Procedure: as §1
as §2, with “3;” for “3:”

[4] = test system: cefepime-resistant Pseudomonas aeruginosa; test: as above; conditions: read-out: concentration for achieving a bacteriostatic effect where the CPM MIC is fixed at 8 μg/mL
Procedure: as §1
as §2, with “3;” for “3:”

[5] = test system: cefepime-resistant Klebsiella pneumoniae; test: as above; conditions: for MIC: Klebsiella pneumoniae, with CPM 8 μg/mL, read-out: concentration for achieving a bacteriostatic effect where the CPM MIC is fixed at 8 μg/mL
Procedure: as §1
as §2, with “3;” for “3:”

[6] = test system: Klebsiella pneumoniae ATCC BAA-1705; test: MIC of β-lactamase inhibitors in the presence of antibiotic (Test Example 1)
Procedure: (§3) • 1) The antibiotics cefepime and biapenem (purchased from MCE Inc.).
as §1
as §2, with “two antibiotics were” for “antibiotic was”, “with” for “with a”, “solvents” for “solvent”, “form” for “form a”, “solutions.” for “solution.”
(§4) 1 μL of 200×B-lactamase inhibitor solution and 1 μL of 1.6 mg/mL antibiotic were added to a new 96-well round-bottom plate. The plate that had been incubated overnight was taken out of the incubator, and several monoclones were picked into normal saline using an inoculating loop. The bacterial solution was adjusted to a concentration of about 1.0×10^8CFU/mL and diluted 200-fold with medium, and 198 μL of the resulting bacterial solution was added to the test plate. The test plate was incubated in a 37° C.incubator for 18-24 h. The 96-well plate that had been incubated for 20 h was taken out of the incubator. The concentration that prevented visible bacterial growth was defined as the minimum inhibitory concentration.

[7] = test system: Escherichia coli ARLG-2829 (Urine); test: as above; conditions: in the presence of Cefepime (8 ug/mL)
Procedure: as §3, §1
as §2, with “two antibiotics were” for “antibiotic was”, “with” for “with a”, “solvents” for “solvent”, “form” for “form a”, “solutions.” for “solution.”
as §4

[8] = test system: Klebsiella pneumoniae ATCC BAA-2472; test: as above
Procedure: as §3, §1
as §2, with “two antibiotics were” for “antibiotic was”, “with” for “with a”, “solvents” for “solvent”, “form” for “form a”, “solutions.” for “solution.”
as §4

[9] = summary in words of Test Example 2
[10] = in the presence of Biapenem (8 ug/mL)
[11] = in the presence of Cefepime (8 ug/mL)

## O=C(O)c1c(F)ccc2c1OB(O)[C@@H]1C[C@H]21 [QPX-7728]
[1]; ATCCBAA1705, read-out: MIC, single substance (1-1-Na, QPX7728, CPM), strain ATCC BAA-1705, KPC-2, TEM, SHV, Class A
  MIC: 32 mg/L (≈ 144 µM)
[1]; ATCCBAA1898, read-out: MIC, single substance (1-1-Na, QPX7728, CPM), strain ATCC BAA-1898, KPC-2, Class A
  MIC: 32 mg/L (≈ 144 µM)
[1]; ATCCBAA1899, read-out: MIC, single substance (1-1-Na, QPX7728, CPM), strain ATCC BAA-1899, KPC-2, Class A
  MIC: 32 mg/L (≈ 144 µM)
[1]; ATCCBAA2343, read-out: MIC, single substance (1-1-Na, QPX7728, CPM), strain ATCC BAA-2343, KPC, Class A
  MIC: 32 mg/L (≈ 144 µM)
[1]; ATCCBAA2470, read-out: MIC, single substance (1-1-Na, QPX7728, CPM), strain ATCC BAA-2470, NDM-1, Class B
  MIC: 16 mg/L (≈ 72.1 µM)
[1]; read-out: MIC, single substance (1-1-Na, QPX7728, CPM), strain ARLG-1127 (Urine), KPC, KPC-3, TEM, TEM-1, Class A
  MIC: 64 mg/L (≈ 288 µM)
[1]; read-out: MIC, single substance (1-1-Na, QPX7728, CPM), strain ARLG-1195, CTM-1 group, SHV, NDM, Class A, B
  MIC: 32 mg/L (≈ 144 µM)
[1]; read-out: MIC, single substance (1-1-Na, QPX7728, CPM), strain ARLG-1196, CTM-1 group, SHV, NDM, TEM, Class A, B
  MIC: 32 mg/L (≈ 144 µM)
[1]; strain ARLG-1127 (Urine), KPC, KPC-3, TEM, TEM-1, Class A
  MIC, Cefepime + compound (8 ug/ml): ≤0.125 mg/L
[1]; strain ARLG-1195, CTM-1 group, SHV, NDM, Class A, B
  MIC, Cefepime + compound (8 ug/ml): ≤0.125 mg/L
[1]; strain ARLG-1196, CTM-1 group, SHV, NDM, TEM, Class A, B
  MIC, Cefepime + compound (8 ug/ml): ≤0.125 mg/L
[1]; strain ATCC BAA-1705, KPC-2, TEM, SHV, Class A
  MIC, Cefepime + compound (8 ug/ml): ≤0.125 mg/L
[1]; strain ATCC BAA-1898, KPC-2, Class A
  MIC, Cefepime + compound (8 ug/ml): <0.125 mg/L
[1]; strain ATCC BAA-1899, KPC-2, Class A
  MIC, Cefepime + compound (8 ug/ml): <0.125 mg/L
[1]; strain ATCC BAA-2343, KPC, Class A
  MIC, Cefepime + compound (8 ug/ml): ≤0.125 mg/L
[1]; strain ATCC BAA-2470, NDM-1, Class B
  MIC, Cefepime + compound (8 ug/ml): ≤0.125 mg/L
[1]; summary in words of Test Example 3 (sentence runs over b277-b278)
  restore to cefepime antibacterial activity against cefepime-resistant Klebsiella pneumoniae: significantly
[2]; strain FDA-CDC AR-BANK#0033
  MIC: > 16 mg/L
[2]; strain FDA-CDC AR-BANK#0035
  MIC: > 16 mg/L
[2]; strain FDA-CDC AR-BANK#0078
  MIC: 16 mg/L
[3]; strain FDA-CDC AR-BANK#0055
  MIC: 0.5 mg/L
[3]; strain FDA-CDC AR-BANK#0114
  MIC: ≤ 0.0156 mg/L
[3]; strain FDA-CDC AR-BANK#0370
  MIC: 0.125 mg/L
[3]; strain FDA-CDC AR-BANK#0371
  MIC: ≤ 0.0156 mg/L
[3]; [9]
  restoring to cefepime antibacterial activity against cefepime-resistant Escherichia coli: significantly restore to cefepime antibacterial activity
[4]; strain FDA-CDC AR-BANK#0246, with CPM 8 μg/mL
  MIC: > 16 mg/L
[4]; strain FDA-CDC AR-BANK#0439, with CPM 8 μg/mL
  MIC: > 16 mg/L
[4]; strain FDA-CDC AR-BANK#0441, with CPM 8 μg/mL
  MIC: 2 mg/L
[4]; strain FDA-CDC AR-BANK#0444, with CPM 8 μg/mL
  MIC: 4 mg/L
[5]; strain FDA-CDC AR-BANK#0003
  MIC: 0.0312 mg/L
[5]; strain FDA-CDC AR-BANK#0076
  MIC: 0.25 mg/L
[5]; strain FDA-CDC AR-BANK#0080
  MIC: 0.5 mg/L
[5]; strain FDA-CDC AR-BANK#0126
  MIC: ≤ 0.0156 mg/L
[5]; strain FDA-CDC AR-BANK#0158
  MIC: 0.5 mg/L
[5]; [9]
  restoring to cefepime antibacterial activity against cefepime-resistant Klebsiella pneumoniae: significantly restore to cefepime antibacterial activity
[6]; [10]
  Minimum inhibitory concentration: ≤0.03125 mg/L
[6]; [11]
  Minimum inhibitory concentration: 0.25 mg/L
[7]
  Minimum inhibitory concentration: 1 mg/L
[8]; [10]
  Minimum inhibitory concentration: 8 mg/L
[8]; [11]
  Minimum inhibitory concentration: 16 mg/L
